Test results reported in patent US10294202B2, “Pyrrolidinones as herbicides” (FMC Corporation, priority 2013, dated 2019).

Assays:
[1] = tested on: galium; test: Test A postemergence herbicide test; assay type: in vivo, Galium aparine; conditions: for Plant response rating, Galium: 125 g ai/ha, 0 to 100 scale, 0 is no effect, 100 is complete control; for Galium plant response rating (0 to 100 scale, 0 is no effect, 100 is complete control): 500 g ai/ha
How it was run: (§1)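 Injury was rated visually about 10 days after treatment on a 0 (no effect) to 100 (complete control) scale, compared with untreated plants. Test chemicals were sprayed postemergence onto greenhouse plants 2–10 cm high at one to two leaves, grown in a loam–sand blend.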

[2] = tested on: ducksalad; test: Test B flooded paddy test; assay type: in vivo, Heteranthera limosa; conditions: Flood, scale of 0 to 100 where 0 is no effect and 100 is complete control
How it was run: (§2)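 In-water application to pots flooded 3 cm deep, plants at 2-leaf stage. Held in greenhouse 13–15 days at constant flood depth. Scored 0–100 by eye against controls.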

[3] = tested on: giant foxtail; test: Test A pre-/postemergence herbicide test; assay type: in vivo, Setaria faberii; conditions: for Plant response rating, Foxtail, Giant: 0 to 100 scale
How it was run: (§3)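 Directed soil spray to seeded pots (preemergence) or spray onto one- to two-leaf seedlings 2–10 cm tall (postemergence); loam/sand substrate throughout. Evaluated visually after about 10 days against untreated plants, 0 = no effect, 100 = complete control.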

[4] = tested on: corn; test: Test A pre-/postemergence herbicide test; assay type: in vivo, Zea mays; conditions: Postemergence; for Plant response rating, Corn: 125 g ai/ha, 0 to 100 scale, 0 is no effect, 100 is complete control; for Corn plant response rating (0 to 100 scale, 0 is no effect, 100 is complete control): 500 g ai/ha
How it was run: as §3

[5] = tested on: blackgrass; test: Test A postemergence herbicide test; assay type: in vivo, Alopecurus myosuroides; conditions: for Plant response rating, Blackgrass: 125 g ai/ha, 0 to 100 scale, 0 is no effect, 100 is complete control; for Blackgrass plant response rating (0 to 100 scale, 0 is no effect, 100 is complete control): 500 g ai/ha
How it was run: as §1

[6] = tested on: kochia; test: Test A pre-/postemergence herbicide test; assay type: in vivo, Kochia scoparia; conditions: for Plant response rating, Kochia: 0 to 100 scale
How it was run: as §3

[7] = tested on: rice; test: Test B flooded paddy test; assay type: in vivo, Oryza sativa; conditions: Flood, scale of 0 to 100 where 0 is no effect and 100 is complete control
How it was run: as §2

[8] = tested on: pigweed; test: Test A pre-/postemergence herbicide test; assay type: in vivo, Amaranthus retroflexus; conditions: for Plant response rating, Pigweed: 0 to 100 scale
How it was run: as §3

[9] = tested on: barnyardgrass; test: Test A pre-/postemergence herbicide test; assay type: in vivo, Echinochloa crus-galli
How it was run: as §3

[10] = tested on: ragweed; test: Test A pre-/postemergence herbicide test; assay type: in vivo, Ambrosia elatior; conditions: for Plant response rating, Ragweed: 0 to 100 scale
How it was run: as §3

[11] = tested on: barnyardgrass; test: Test B flooded paddy test; assay type: in vivo, Echinochloa crus-galli; conditions: Flood, scale of 0 to 100 where 0 is no effect and 100 is complete control
How it was run: as §2

[12] = tested on: sedge, umbrella; test: Test B flooded paddy test; assay type: in vivo, Cyperus difformis; conditions: Flood, scale of 0 to 100 where 0 is no effect and 100 is complete control
How it was run: as §2

[13] = tested on: ryegrass, Italian; test: Test A pre-/postemergence herbicide test; assay type: in vivo, Lolium multiflorum; conditions: for Plant response rating, Ryegrass, Italian: 0 to 100 scale
How it was run: as §3

[14] = tested on: wheat; test: Test A pre-/postemergence herbicide test; assay type: in vivo, Triticum aestivum; conditions: Postemergence; for Plant response rating, Wheat: 125 g ai/ha, 0 to 100 scale, 0 is no effect, 100 is complete control; for Wheat plant response rating (0 to 100 scale, 0 is no effect, 100 is complete control): 500 g ai/ha
How it was run: as §3

[15] = 125 g ai/ha, visual rating, 0 no effect, 100 complete control, approximately 10 days, preemergence
[16] = Postemergence, 125 g ai/ha, 0 is no effect, 100 is complete control
[17] = preemergence, 500 g ai/ha, 0 is no effect and 100 is complete control
[18] = 125 g ai/ha, visual rating, 0 to 100 scale, 0 no effect, 100 complete control, approximately 10 days, preemergence
[19] = Postemergence, 125 g ai/ha, 0 to 100 scale, 0 is no effect, 100 is complete control

Compound	Plant response rating, Galium [1]	Galium plant response rating (0 to 100 scale, 0 is no effect, 100 is complete control) [1]	Plant response rating, Foxtail, Giant [3, 15]	Plant response rating, Foxtail, Giant [3, 16]	Foxtail, Giant plant response rating (0 to 100 scale, 0 is no effect, 100 is complete control) ([3]; Postemergence, 500 g ai/ha)	Plant response rating, Corn [4]	Corn plant response rating (0 to 100 scale, 0 is no effect, 100 is complete control) [4]	Plant response rating, Blackgrass [5]	Blackgrass plant response rating (0 to 100 scale, 0 is no effect, 100 is complete control) [5]	Plant response rating, Kochia [6, 15]	Plant response rating, Kochia [6, 16]	Kochia plant response rating (0 to 100 scale, 0 is no effect, 100 is complete control) ([6]; Postemergence, 500 g ai/ha)	Plant response rating, Kochia [6, 17]	Plant response rating, Pigweed [8, 15]	Plant response rating, Pigweed [8, 16]	Pigweed plant response rating (0 to 100 scale, 0 is no effect, 100 is complete control) ([8]; Postemergence, 500 g ai/ha)	Plant response rating, Pigweed [8, 17]	Plant response rating, Barnyardgrass [9, 18]	Plant response rating, Barnyardgrass [9, 19]	Barnyardgrass plant response rating (0 to 100 scale, 0 is no effect, 100 is complete control) ([9]; Postemergence, 500 g ai/ha)	also measured
CCc1cccc(C2CNC(=O)C2C(=O)Nc2ccc(F)c(F)c2F)c1 (racemic) [Compound 171]	50	70	90	60	80	20	70	50	60	60	0	30	70	20	0	40	40	90	90	90	Plant response rating, Ducksalad ([2]; 500 g ai/ha): 100; Plant response rating, Foxtail, Giant ([3]; preemergence, 500 g ai/ha): 90; Plant response rating, Rice ([7]; 500 g ai/ha): 0; Plant response rating, Barnyardgrass ([9]; preemergence, 500 g ai/ha, 0 to 100 scale (0 no effect, 100 complete control)): 90; Plant response rating, Ragweed [10, 15]: 0; Plant response rating, Ragweed [10, 16]: 0; Ragweed plant response rating (0 to 100 scale, 0 is no effect, 100 is complete control) ([10]; Postemergence, 500 g ai/ha): 30; Plant response rating, Ragweed [10, 17]: 30; Plant response rating, Barnyardgrass ([11]; 500 g ai/ha): 70; Plant response rating, Sedge, Umbrella ([12]; 500 g ai/ha): 0; Plant response rating, Ryegrass, Italian [13, 15]: 0; Plant response rating, Ryegrass, Italian [13, 16]: 20; Ryegrass, Italian plant response rating (0 to 100 scale, 0 is no effect, 100 is complete control) ([13]; Postemergence, 500 g ai/ha): 30; Plant response rating, Ryegrass, Italian [13, 17]: 30; Plant response rating, Wheat [14]: 0; Wheat plant response rating (0 to 100 scale, 0 is no effect, 100 is complete control) [14]: 50
CC(C)(C)c1cccc(C2CNC(=O)C2C(=O)Nc2ccccc2C(F)(F)F)c1 (racemic) [Compound 201]	0	0	20	0	0	0	0	0	0	0	0	0	0	0	0	0	0	0	0	30	Plant response rating, Ducksalad ([2]; 1000 g ai/ha): 70; Plant response rating, Foxtail, Giant [3, 17]: 30; Plant response rating, Rice ([7]; 1000 g ai/ha): 0; Plant response rating, Barnyardgrass ([9]; preemergence, 500 g ai/ha, 0 to 100 scale, 0 is no effect and 100 is complete control): 20; Plant response rating, Ragweed [10, 15]: 0; Plant response rating, Ragweed [10, 16]: 0; Ragweed plant response rating (0 to 100 scale, 0 is no effect, 100 is complete control) ([10]; Postemergence, 500 g ai/ha): 0; Plant response rating, Ragweed [10, 17]: 0; Plant response rating, Barnyardgrass ([11]; 1000 g ai/ha): 20; Plant response rating, Sedge, Umbrella ([12]; 1000 g ai/ha): 0; Plant response rating, Ryegrass, Italian [13, 15]: 0; Plant response rating, Ryegrass, Italian [13, 16]: 0; Ryegrass, Italian plant response rating (0 to 100 scale, 0 is no effect, 100 is complete control) ([13]; Postemergence, 500 g ai/ha): 0; Plant response rating, Ryegrass, Italian [13, 17]: 0; Plant response rating, Wheat [14]: 0; Wheat plant response rating (0 to 100 scale, 0 is no effect, 100 is complete control) [14]: 0
